From US8207142B2, “Inhibitor of DNA methylation” (priority 2001, dated 2012)

Test system: silenced hph gene
Assay: Plate assay, reactivation of the methylation-silenced hph gene (hygromycin resistance), strain N644
Assay type: cell-based, Neurospora crassa
Details: 2.5-400 nmoles on paper disc
Protocol: FIG. 5 is a series of photographs of plate assays, showing reactivation of the silenced hph gene in Neurospora crassa by Zebularine. N. crassa strain N644 has a single copy of the E. coli hph gene that was silenced by cytosine methylation. The active hph gene confers hygromycin resistance.
Treatments are indicated above each plate; the listed compound was applied to the paper discs in the middle of each plate. With the exception of the “no hygromycin” plate, all plates had 5 mg hygromycin B added in a 5 ml 0.7% agar overlay after 24 hours growth at 32° C. The plates were then incubated an additional two days at the same temperature and photographed.
Plate tests were performed with solidified medium essentially as previously described (Selker, Proc. Natl. Acad. Sci. USA 95;9430-9435, 1998). In brief, approximately 2,000 N. crassa conidia of the indicated were plated on each plate. Drugs were administered from a 4-mm diameter Whatman™ no. 1 paper disk placed in the middle of each plate shortly after plating.
N. crassa was used to quantitatively examine the effectiveness of Zebularine at reducing or reversing methylation (Selker, Proc. Natl. Acad. Sci. USA, 95:9430-9435, 1998). […]

## O=c1ncccn1[C@@H]1O[C@H](CO)[C@@H](O)[C@H]1O [Zebularine, 1-β-ribofuranosyl-1,2-dihydropyrimidin-2-one]
  reactivation of silenced hph gene (conidia growth on hygromycin): reactivate the hph gene
